{
  "source": "patent US20240033244A1",
  "about": "“COMPOSITIONS AND METHODS FOR INHIBITING YTHDF1” (SHANGHAI INSTITUTE OF MATERIA MEDICA, CHINESE ACADEMY OF …, priority 2020, published 2024)",
  "key": {"His-YTHDF1 (361-559)": {"target": "T1, His-YTHDF1 (361-559) (Homo sapiens, UniProt Q9BYJ9)", "T1 construct": "made in house; host or cells: E. coli BL21 (DE3)", "T1 sequence (Q9BYJ9 with tags, fused parts or gaps)": "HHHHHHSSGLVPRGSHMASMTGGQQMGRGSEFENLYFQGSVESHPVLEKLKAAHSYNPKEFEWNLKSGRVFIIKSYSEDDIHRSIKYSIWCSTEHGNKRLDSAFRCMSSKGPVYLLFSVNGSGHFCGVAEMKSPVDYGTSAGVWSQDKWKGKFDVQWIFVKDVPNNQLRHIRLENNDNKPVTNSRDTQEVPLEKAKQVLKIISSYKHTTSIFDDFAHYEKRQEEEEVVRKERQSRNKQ", "experiment": "AlphaScreen competition assay against non-biotinylated m6A-containing mRNA", "assay_type": "binding", "method": "200 nM His-YTHDF1 (361-559) was incubated with non-biotinylated m^6A-containing mRNA at 4° C. for 10 minutes. […] Next, 20 nM biotinylated m^6A-containing mRNA and two kinds of beads were added in subdued light and incubated at 4° C. for 1 hour before detection.\nA competitive binding experiment was performed against fixed concentrations of non-biotinylated m^6A-containing mRNA, based on AlphaScreen assay, using 200 nM YTHDF1 and 20 nM biotinylated m^6A-containing mRNA."}, "YTHDF1 mutant F480A": {"target": "T2, YTHDF1 mutant F480A (Homo sapiens, UniProt Q9BYJ9, F480A)", "T2 construct": "GST (N, cleaved yes); made in house; host or cells: E. coli BL21 (DE3)", "T2 sequence (Q9BYJ9 with tags, fused parts or gaps F480A)": "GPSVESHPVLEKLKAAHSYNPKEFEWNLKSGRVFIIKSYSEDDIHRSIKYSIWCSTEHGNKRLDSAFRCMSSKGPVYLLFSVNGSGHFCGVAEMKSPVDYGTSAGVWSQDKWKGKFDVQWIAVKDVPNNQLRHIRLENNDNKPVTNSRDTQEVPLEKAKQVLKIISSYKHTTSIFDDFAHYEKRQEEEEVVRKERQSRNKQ", "experiment": "FP assay with YTHDF1 mutant F480A", "assay_type": "binding", "method": "(§1) The protein YTHDF1 (361-559) (SEQ ID NO: 2) and its mutants (SEQ ID NOs: 4-13) were cloned into pGEx-6P-1 vector (obtained from YouBio Co, Ltd, Catalog NO: VT1258), and the His-YTHDF1 (361-559) (SEQ ID NO: 3) used in AlphaScreen Assay was cloned into modified pET28a vector (obtained from YouBio Co, Ltd, Catalog NO: VT1207). The vectors were transformed into E. coli BL21 (DE3) cells and cultured at 37° C. When OD value reached 0.6˜0.8, 1 mM Isopropyl-β-D-thiogalactopyranoside was added to overexpress the protein at 16° C. overnight. […] Then, the proteins were further purified via cation exchange (HiTrap SP, GE Healthcare) and finally through a Superdex 75 10/300 column (GE Healthcare). At last, the purified YTHDF1(361-559) and the mutants were kept in buffer which contains 20 mM Hepes (pH 7.4) and 200 mM NaCl. For His-YTHDF1 (361-559), the protein was purified via Ni-NTA chromatography (HisTrap FF, GE Healthcare), followed by cation exchange and Superdex 75 10/300 column in sequence. And the obtained protein was kept in the buffer with the same ingredients.\n(§2) All of the YTHDF1 (361-559), the 5′-FAM labeled m^6A-containing mRNA (5′-FAM-[…] (m^6A) CUGUG-3′, SEQ ID NO: 14) and the candidate compounds were diluted with assay buffer (20 mM Hepes (pH 7.4), 50 mM NaCl, 0.01% (v/v) tween 20, 5% (v/v) glycerol). […] At last, the mixtures were measured by Envision Readers (PerkinElmer). […]"}, "YTHDF1 mutant F382A": {"target": "T3, YTHDF1 mutant F382A (Homo sapiens, UniProt Q9BYJ9, F382A)", "T3 construct": "GST (N, cleaved yes); made in house; host or cells: E. coli BL21 (DE3)", "T3 sequence (Q9BYJ9 with tags, fused parts or gaps F382A)": "as the sequence (Q9BYJ9 with tags, fused parts or gaps F480A) above, with F24A, A122F counted along it", "experiment": "FP assay with YTHDF1 mutant F382A", "assay_type": "binding", "method": "as §1, §2"}, "B16-OVA melanoma": {"system": "B16-OVA melanoma", "experiment": "B16-OVA tumor growth in wild-type mice", "assay_type": "in vivo, mouse"}, "FLT3L-DCs": {"system": "FLT3L-DCs", "experiment": "FLT3L-DC direct-priming of OT-I T cells in vitro with OT-I peptide", "assay_type": "cell-based, mouse", "details": "1 μg/mL OT-I peptide", "method": "Then antigen-obtained DCs were purified and co-cultured with naïve T cells from OT-1 mice at a ratio of 1:10 for 96 h. The co-culture medium was 1640 RPMI contains 10% fetal bovine with or without 1 μg/mL OT-1 (OVA 257-264) peptide. For ex vivo DCs cross-presentation assay, four types of DCs (migration CD11b DC, migration CD103′ DC, resident CD11b DC and resident CD8^+ DC) were sorted in draining lymph node from SAA treated B16-OVA bearing mice at day 12. These DCs were co-cultured with OT-1 naïve T cells in the ratio of 1:10 for 96 hours with or without OT-1 peptide. Supernatant IFN-γ production was detected via CBA assay.\nDendritic cells can activate T cells through cross-priming and/or direct-priming. In direct-priming process, DCs could stimulate T cells via surface co-stimulatory molecules such as CD80/CD86 or cytokines related with T cell activation. To evaluate whether the direct priming function was also affected after SAA administration, bone marrow derived cells (wildtype or Ythdf1 gene deficient) were cultured with FLT3L for 9 days to get FLT3L-DC and these DCs were treated with 10 μM SAA for 12 hours, then, FLT3L-DCs were co-cultured with necrotic B16-OVA tumor cell for 6 hours. […] IFN-γ production was assessed by IFN-γ cytometric bead array. […] Then, IFN-γ production was assessed by IFN-γ cytometric bead array."}},
  "data": [
    {"smiles": "O=C(/C=C/c1ccc(O)c(O)c1/C=C/c1ccc(O)c(O)c1)O[C@H](Cc1ccc(O)c(O)c1)C(=O)O", "note": "[SAA, Salvianolic Acid A]", "values": [
      {"measurement": "inhibitory activity against YTHDF1 with competitor", "setting": "His-YTHDF1 (361-559); 50 nM, 100 nM, 200 nM or 400 nM non-biotinylated m6A-containing mRNA preincubated with YTHDF1", "result": "remained unchanged"},
      {"measurement": "IC50", "setting": "His-YTHDF1 (361-559); absence of non-biotinylated m6A-containing mRNA, 200 nM YTHDF1, 20 nM biotinylated mRNA, read-out: inhibitory activity against YTHDF1", "result": "800 ± 80", "unit": "nM"},
      {"measurement": "inhibitory activity against mutant binding to m6A versus wildtype", "setting": "YTHDF1 mutant F480A", "result": "significantly weaker than that against wildtype YTHDF1"},
      {"measurement": "inhibitory activity against mutant binding to m6A versus wildtype", "setting": "YTHDF1 mutant F382A", "result": "significantly weaker than that against wildtype YTHDF1"},
      {"measurement": "tumor growth versus DMSO", "setting": "B16-OVA melanoma; 5×10^5 B16-OVA in C57BL/6 mice, 10 μM i.v. 9 days after implantation (FIG. 19)", "result": "tumor growth was much slower"},
      {"measurement": "tumor growth versus control", "setting": "B16-OVA melanoma; 5×10^5 B16-OVA s.c., 10 μM SAA on day 9 and 11", "result": "tumor growth was much slower"},
      {"measurement": "FLT3L-DC direct-priming function (IFN-γ production)", "setting": "FLT3L-DCs", "result": "could not enhance"}
    ]}
  ]
}
